According to patent publication US20220133702A1, “CYSTIC FIBROSIS TRANSMEMBRANE CONDUCTANCE REGULATOR MODULATORS FOR TREATING AUTOSOMAL DOMINANT POLYCYSTIC KIDNEY DISEASE” (The Johns Hopkins University, priority 2020, published 2022):

Legend:
HSP27, 70, 90 and HSP40 = assay: Western blot of heat shock proteins in kidney tissue lysates; assay type: in vivo; settings: 30 mg/kg BW, cyst-induced mouse kidneys
Experimental: FIG. 7A, FIG. 7B, FIG. 7C, FIG. 7D, FIG. 7E, and FIG. 7F show chaperone expression is altered in mice by VX-809. (FIG. 7A-FIG.7B) Representative Western blot images of HSP27, 70, 90 and HSP40 in lysates of kidney tissue from no cyst induced (ND), cyst induced with Doxycycline (D) or cyst induced pkd−/− mice treated with VX-809 (D+VX-809) 30 mg/kg BW. (FIG. 7C, FIG. 7D, FIG. 7E, and FIG. 7F). Columns represent averages±standard errors of HSP27, 70, 90 and HSP40 expression. Data were analyzed by non-parametric t-test. n=4 for each treated and control groups. Black lines between lanes represent representative experiments from the same gel. *P<0.05; **P<0.01;
To facilitate their growth in the kidney, cysts have developed an altered network of proteins that most likely serves to protect them from stress . Next, it was determined whether VX-809 would alter the levels of Hsps in pkd−/− mice and in PN cells. […] Hsp 27, 70 and 90 are all elevated in cystic kidneys compared to normal controls. […] There is no change in Hsp40. […] Both sets of data are consistent with an alteration in the heat shock response to cyst growth.

[1] = tested on: intracellular Ca^2+ in PN cells; assay: Fura-2 Ca2+ imaging assay; assay type: cell-based, mouse; settings: 10 μM, 16 h
Experimental: FIG. 5A, FIG. 5B, FIG. 5C, FIG. 5D, FIG. 5E, and FIG. 5F show intracellular Ca^2+ (F340/F380) levels obtained by ratiometric Fura-2 AM analysis of PN cells treated with VX-809 (10 μM) for 16 h. (FIG. 5A) Representative traces of intracellular Ca^2+ release in response to ATP (100 μM) in PN cells and cells treated with VX-809 (10 μM). (FIG. 5B, FIG. 5C) Graphs summarizing resting calcium levels (FIG. 5B) and the average amplitude of Ca^2+ release (FIG. 5C) in response to ATP. (FIG. 5D) Representative traces of ER Ca^2+ release in response to thapsigargin (4 μM) in PN cells treated with VX-809. (FIG. 5E, FIG. 5F) Resting calcium levels (FIG. 5E) and the average amplitude of Ca^2+ release (FIG. 5F) in response to thapsigargin. Amplitude was measured as the […] of the signal base to peak Δf/f. Significance between the two groups was analyzed using Student's t-test, n=4-5). *P<0.05, ***P<0.001.
Ca^2+-dependent signal transduction is associated with cyst formation. […] To address the effect of VX-809 on this Ca^2+ release, the cells were treated with thapsigargin, a specific inhibitor of the ER Ca^2+-ATPase which, when applied, allows Ca^2+ to leak out of the ER through independent Ca^2+-permeable pathways. A small effect of VX-809 on resting Ca^2+ was observed.
Fura-2 Ca^2+ imaging assay. On Day 5 of cell culture, the cells were loaded with the cell-permeant acetoxymethyl (AM) ester of the calcium indicator fura-2 (fura-2/AM) at 37° C. for 90 min. Measurements were made on a Zeiss inverted microscope equipped with a Sutter Lambda 10-2 controller and filter wheel assembly. For ATP stimulation experiments, the cells were exposed to 100 μM ATP diluted in the imaging buffer. A Zeiss FluorArc mercury lamp was used to excite the cells at 340 and 380 nm, and the emission response was measured at 510 nm Cell fluorescence was measured in response to excitation for 1000 ms at 340 nm and 200 ms at 380 nm once every 4 s. Image acquisition, image analysis, and filter wheel control were performed with IPLab software.

[2] = tested on: kidneys of Pkd1^fl/fl; Pax8^rtTA; TetO-cre mice; assay: Ki67 staining of kidney sections (proliferation); assay type: in vivo, mouse; settings: 30 mg/kg, vs DMSO-treated mice
Description: FIG. 3A, FIG. 3B, FIG. 3C, and FIG. 3D show cell proliferation is reduced by VX-809. (FIG. 3A-FIG. 3B) Proliferation in kidneys of Pkd1^fl/fl; Pax8^rtTA; TetO-cre mice. Representative images of Ki67 (a cellular marker for proliferation) staining of PN21 kidney sections from DMSO- and VX-809-treated mice. Arrows indicate Ki67-positive cells. Pictures were acquired with a Zeiss microscope equipped with 20× objective. (FIG. 3C) Summary data for Ki67-positive cells. Columns represent averages±standard errors of DMSO (vehicle)-treated (n=3) and VX-809-treated (n=3) mice. Statistical analysis was performed using a two-tailed Student's t test. (FIG. 3D) Proliferation in PN cells. PN cells were treated with VX-809 or DMSO). The bromodeoxyuridine (BrdU) concentration in the cells was measured by using a BrdU cell proliferation assay kit (Millipore Sigma#2750) according to the manufacturer's protocol. Columns represent averages±SEs of the OD of BrdU at 450/550 […]. Data were analyzed using Student's t-test, with n=5-7. Methods were described previously (62). *P>0.05; **P<0.01;
A hallmark of the cysts in ADPKD is an increase in proliferation in response to cAMP. Therefore, it was determined whether VX-809 would affect proliferation.

CFTR in PN cells = assay: CFTR expression and biotinylation; assay type: cell-based, mouse; settings: 10 μM, 16 h, vs control PN cells
Experimental: FIG. 19A, FIG. 19B, FIG. 19C, and FIG. 19D show CFTR expression in PN cells treated with VX-809 (10 μM) for 16 h.
The expression of CFTR was evaluated in PN cells treated with VX-809 and control PN cells. PN cells were treated with 10 μM VX-809 for 16 h or a control.

PC2 in PN cells = assay: Western blot of endogenous PC2; assay type: cell-based, mouse
Experimental: FIG. 6A and FIG. 6B show PC2 expression is unchanged by VX-809. (FIG. 6A) Western blot showing expression of PC2 in treated or control cells. (FIG. 6B) Columns represent the means±SEM of the PC2 expression. The data were analyzed by non-parametric t-test. The experiment was repeated six (control) or seven times;
PC2 is a 968-amino acid protein with an approximate molecular weight of 100 kDa in its monomeric form To determine whether VX-809 affects PC2 protein expression, western blot experiments were conducted on PN cells to determine the resting levels of endogenous PC2. The results indicated (FIG. 6) that VX-809 has no effect on PC2 expression.

`Cc1ccc(NC(=O)C2(c3ccc4c(c3)OC(F)(F)O4)CC2)nc1-c1cccc(C(=O)O)c1` [VX-809, lumacaftor] was tested, and the Hsp27 expression (HSP27, 70, 90 and HSP40) was “significantly less expression”, the Hsp40 expression (HSP27, 70, 90 and HSP40) was “no change” and the Hsp70 expression (HSP27, 70, 90 and HSP40) was “significantly less expression”. For the same compound, the Hsp90 expression (HSP27, 70, 90 and HSP40) was “significantly less expression”, the “intracellular Ca^2+ movement in response to ATP” value ([1]; ATP 100 μM) was “no effect” and the “resting Ca^2+” value ([1]; ATP experiment) was “small reduction”. The “thapsigargin-induced release of Ca^2+ from the ER” value ([1]; thapsigargin 4 μM) was “dramatically reduced”, the “resting Ca^2+” value ([1]; thapsigargin experiment) was “small effect” and the “cell proliferation (Ki67-positive cells)” value [2] was “significantly inhibit cell proliferation”. The CFTR expression (CFTR in PN cells) was “enhanced”, the “biotinylation of CFTR” value (CFTR in PN cells) was “significantly increased” and the PC2 expression (PC2 in PN cells) was “no effect”.
